# Reference: patent US20260258333A1, “MULTI-ORGAN "BODY ON A CHIP" APPARATUS UTILIZING A COMMON MEDIA” (Wake Forest University Health Sciences, priority 2016, published 2026)
# Where two headings read alike, the source gives them in different places.
# Tests used:
# [1] = tested on: liver organoids; test: Liver on a chip: acetaminophen toxicity and N-acetyl-L-cysteine countermeasure; type: cell-based, human; settings: for albumin and urea output into media: APAP 1 or 10 mM, NAC 20 mM with 10 mM APAP
# Experimental: FIG. 13. […] Viability as determined by LIVE/DEAD staining on day 14. Organoids were exposed to panel a) a 0 mM APAP control, panel b) 1 mM APAP, panel c) 10 mM APAP, or panel d) 10 mM APAP with 20 mM N-acetyl-L-cysteine. Green—Calcein AM-stained viable cells; Red—Ethidium homodimer-stained dead cells. […] Quantification of panel e) human albumin, panel f) urea, panel g) lactate dehydrogenase, and panel h) alpha-GST. […] Statistical significance: *p<0.05 between control and APAP; # p<0.05 APAP+NAC and APAP.
# [2] = marketed use in patients; cited from earlier work
# [3] = tested on: cardiac organoids
# Experimental: FIG. 14. […] Panel a) Beating output under baseline conditions, from which beating rate is determined. Panels b-e) Change in cardiac organoid beat rate resulting from exposure to panel b) isoproterenol, or panel c) quinidine. Panels d-e) Cardiac organoid response to epinephrine and propranolol.
# FIG. 19. Assessment of cardiac organoid beating kinetics in response to panel a) astemizole, panel b) pergoglide, and panel c) terodiline.
# It should be noted that most drugs that are recalled for causing cardiac toxicity are not actually recalled due to cardiac cell death, but rather for causing changes in cardiac function, such as beating kinetics. While 2D cardiomyocyte cultures can maintain beating activity, consistency and reproducibility can be difficult to maintain. […] These facts make it more difficult to compare beating kinetics between these cell model types.
# [4] = tested on: cardiac organoids, 2D iPS-derived cardiomyocytes, 2D C2C12
# Text: (§4) Comparison of ATP activity in response to drug screens of FDA-recalled drugs between 3D liver and cardiac organoids, 2D hepatocyte and cardiomyocyte cultures, and 2D HepG2 and C2C12 cell line cultures. Panels a-d) ATP activity of liver organoids, 2D primary human hepatocytes, and 2D hepG2 cell line cultures in response to panel a) troglitazone, panel b) mibefradil, panel c) bromfenac, and panel d) tielinic acid. Panels e-i) ATP activity of cardiac organoids, 2D iPS-derived cardiomyocytes, and 2D C2C12 cell line cultures in response to panel e) astemizole, panel f) pergoglide, panel g) terodiline, panel h) rofecoxib, and panel i) valdecoxib. Comparisons between groups were normalized to the no drug baseline ATP activity levels. Statistical significance: *p<0.05, 3D organoids versus both 2D cultures; #p<0.05, 2D hepatocytes/cardiomyocytes versus both 3D organoids and 2D cell lines; $ p<0.05, 2D cell line versus both 3D organoids and 2D hepatocytes/cardiomyocytes.
# (§5) In comparison to 3D organoid systems, we also screened these drugs using 2D primary hepatocyte and iPS cardiomyocyte cultures, and 2D hepg2 hepatoma cells and C2C12 myoblast cultures. […] In order to allow comparisons between the different cell model form factors, which employed different numbers of cells (liver organoids—1500; cardiac organoids—2500; 2D hepatocytes—20000; 2D cardiomyocytes—12500; HepG2 and C2C12 cultures—20000), ATP levels were normalized to no drug baseline levels.
# [5] = tested on: liver organoids, 2D primary human hepatocytes, 2D HepG2; test: ATP activity, 3D liver organoids versus 2D hepatocyte and 2D HepG2 cultures; type: cell-based; settings: ATP normalized to no drug baseline
# Text: as §4, §5
# [6] = tested on: liver organoids; test: LIVE/DEAD staining of 3D liver organoids, FDA-recalled drug screen; type: cell-based, human; settings: increasing drug concentration (troglitazone 0-3 μM, mibefradil 0-100 μM)
# Text: Unfortunately, many drugs have made it through preclinical studies and clinical trials, after which they existed on the market, for years in some cases, before being recalled by the Food and Drug Administration (FDA) for having toxic effects in humans. […] These include liver toxins troglitazone, mibefradil, bromfenac, and tienilic acid, as well as cardiac toxins, astemizole, pergoglide, terodiline, rofecoxib, and valdecoxib.
# [7] = tested on: cardiac organoids, 2D iPS-derived cardiomyocytes, 2D C2C12; test: ATP activity, 3D cardiac organoids versus 2D iPS cardiomyocyte and 2D C2C12 cultures
# Text: as §4, §5
# [8] = tested on: liver, cardiac, lung, testis, and brain organoids
# Experimental: Aim of Experiment: To assess dependence of multi organoid toxicity on liver organoid metabolic function.
# At this point, the liver modules were removed from half of the platforms. Capecitabine (20 μM) was administered to all platforms after which viability was assessed through live/dead staining or cardiac beating behavior after 7 days of exposure (day 14 of total study).
# [9] = tested on: liver, cardiac, lung, testis, and brain organoids; remark: listed apart in the source
# Experimental: A microfluidic platform having a miniaturized footprint and fluid volume was prepared and it was assessed whether the same complex drug studies are possible on this platform.
# As with the full-scale platform described in Example 4, five tissue constructs were initiated containing liver, cardiac, lung, testis, and brain organoids and maintained for 7 days prior to the start of the drug study. At this point, the liver modules were removed from half of the platforms. Capecitabine (20 uM) was administered to all platforms after which viability was assessed through live/dead staining or cardiac beating behavior after 7 days of exposure (day 14 of total study).
# [10] = tested on: cardiac organoids downstream of liver construct
# Text: (§1) In the human body, organs interact with one another in complex ways. […] The modular nature of the fluidic system was employed to construct such a platform. Real-time visual monitoring of cardiac organoids was achieved using an onboard LED and camera system that was customized to integrate with the cardiac construct microreactor housing (FIG. 6, panel a) ^32. This system allowed real time video capture (FIG. 6, panel b). Using custom written MatLab code with a series of MatLab functions, moving pixels in each frame were determined against time, generating a binary representation of beat propagation (FIG. 6, panel c) and plots visualizing beating rates.
# (§2) Effects of epinephrine and propranolol were first tested independently with a cardiac-only system or the tandem system, before being tested jointly in both systems.
# (§3) Next, the interplay between both drugs in the cardiac-only and tandem systems was assessed. […] Beating plots for each condition are depicted in FIG. 6, panels f-i.
# [11] = tested on: cardiac organoids; remark: listed apart in the source
# Text: as §1, §2, §3
# [12] = tested on: cardiac organoids; settings: preliminary results, FIG. 22
# Experimental: Following compound exposures, organoids were assessed for viability with LIVE/DEAD staining or ATP activity.
# [13] = tested on: vascular endothelium; settings: confluent monolayers, 100 μM histamine from 20 min, at 45 min; 50-90 RFUs before histamine
# Experimental: New vascular modules were prepared with either fully confluent endothelial layers or non-confluent layers. For this experiment, liver organoids were immobilized in liver-specific bioink, as described, in the bottom chamber of the modules (FIG. 3, panel f). These were imaged in parallel to the mass transport experiment by macro-confocal microscopy, showing the endothelium on the semi-porous membrane (membrane not visible) and the 3D liver organoid below (FIG. 3, panel g). Importantly, for the mass transport experiment, the bioink also contained a soluble fluorescent dye consisting of soluble 15 kDa gelatin conjugated with Alexa Fluor 594 maleimide tags in media. Upon addition of the liver organoids, bioink, and dye in the bottom chamber of the device, devices were sealed, and experiments were initiated. Modules were maintained under 25 μL/min flow with normal media coming from a media reservoir, during which aliquots from the outlet ports were collected every 5 minutes. […] Aliquots were analyzed following the experiment for fluorescent intensity.
# [14] = tested on: vascular endothelium (human umbilical vein endothelial cells); settings: 100 μM histamine, constant for 10 minutes; normal media about 0.54 kΩ
# Text: The goal of our work was to develop a highly functional microfluidic perfusion-driven six-tissue body-on-a-chip system, containing representations of liver, heart, vasculature, lung, testes, and colon (FIG. 1, panels A-B). Importantly, these individual tissue types would be constructed in modular microfluidic hardware devices, or microreactors (FIG. 1, panel B), formed by conventional polydimethyl-siloxane (PDMS) soft lithography and molding, ^11,30,31 allowing simple “plug and play” capabilities for platform initialization. […] Because of the specific individual requirements of each type of tissue model, a toolbox of biofabrication techniques was employed to create each tissue model (FIG. 1, panels C-E). Briefly, using hanging drop methodology, spherical liver organoids were formed with primary human hepatocytes, stellate cells, and Kupffer cells, spherical cardiac organoids and testes organoids were formed using human induced pluripotent stem (iPS) cells. These spherical organoids were then bioprinted (FIG. 7) into the microreactors using a liver ECM-derived bio-ink, a fibrin and gelatin bio-ink, and a hyaluronic acid (HA) and gelatin bio-ink, employing crosslinking of the hydrogel bio-inks to immobilize the organoids as larger hydrogel-organoid constructs within the perfusion system. […]
compound,measurement,setting,value
"CC(=O)Nc1ccc(O)cc1 [APAP, acetaminophen]",albumin and urea output into media,[1],negatively affected
same,LDH and alpha-GST in media,[1]; APAP treatment,elevated levels
COc1ccc(CCN2CCC(Nc3nc4ccccc4n3Cc3ccc(F)cc3)CC2)cc1 [Astemizole],Site of Primary Toxicity,[2],Heart
same,beating kinetics of 3D cardiac organoids,[3],detrimental changes in beating kinetics
same,"sensitivity by ATP activity, 3D cardiac organoids compared to the 2D systems",[4],significantly more sensitive
Nc1c(CC(=O)O)cccc1C(=O)c1ccc(Br)cc1 [Bromfenac],Site of Primary Toxicity,[2],Liver
same,"sensitivity by ATP activity, 3D organoids and 2D hepatocyte cultures in comparison to 2D HepG2 cultures",[5],slightly more resistant
COCC(=O)O[C@]1(CCN(C)CCCc2nc3ccccc3[nH]2)CCc2cc(F)ccc2[C@@H]1C(C)C [Mibefradil],Site of Primary Toxicity,[2],Liver
same,"cell death, LIVE/DEAD",[6],increases in cell death
same,"sensitivity by ATP activity, 3D organoids and 2D hepatocyte cultures in comparison to 2D HepG2 cultures",[5],more sensitive
"CC(=O)N[C@@H](CS)C(=O)O [NAC, N-acetyl-L-cysteine]","viability, LIVE/DEAD staining on day 14",[1]; 10 mM APAP with 20 mM N-acetyl-L-cysteine,rescued
same,albumin and urea output into media,[1],decreases this reduction in secretion
CCCN1C[C@H](CSC)C[C@@H]2c3cccc4[nH]cc(c34)C[C@H]21 [Pergoglide],Site of Primary Toxicity,[2],Heart
same,beating kinetics of 3D cardiac organoids,[3],detrimental changes in beating kinetics
same,"sensitivity by ATP activity, 3D cardiac organoids compared to the 2D systems",[4],significantly more sensitive
CS(=O)(=O)c1ccc(C2=C(c3ccccc3)C(=O)OC2)cc1 [Rofecoxib],Site of Primary Toxicity,[2],Heart
same,"sensitivity by ATP activity, 2D cardiomyocyte cultures compared to 3D organoids and 2D C2C12 cultures",[7]; only at low to medium drug concentrations,increased sensitivity
CC(CC(c1ccccc1)c1ccccc1)NC(C)(C)C (centres unmarked) [Terodiline],Site of Primary Toxicity,[2],Heart
same,beating kinetics of 3D cardiac organoids,[3],detrimental changes in beating kinetics
same,"sensitivity by ATP activity, 3D cardiac organoids compared to the 2D systems",[7]; only at the highest concentration of 100 μM,slightly more sensitive
O=C(O)COc1ccc(C(=O)c2cccs2)c(Cl)c1Cl [Tienilic Acid],Site of Primary Toxicity,[2],Liver
same,"sensitivity by ATP activity, 3D organoids versus both 2D systems",[5],did not experience significantly different responses
Cc1c(C)c2c(c(C)c1O)CCC(C)(COc1ccc(CC3SC(=O)NC3=O)cc1)O2 (centres unmarked) [Troglitazone],Site of Primary Toxicity,[2],Liver
same,"cell death, LIVE/DEAD",[6],increases in cell death
Cc1onc(-c2ccccc2)c1-c1ccc(S(N)(=O)=O)cc1 [Valdecoxib],Site of Primary Toxicity,[2],Heart
same,"sensitivity by ATP activity, 2D cardiomyocyte cultures compared to 3D organoids and 2D C2C12 cultures",[4],increased sensitivity
CCCCCOC(=O)Nc1nc(=O)n([C@@H]2O[C@H](C)[C@@H](O)[C@H]2O)cc1F [capecitabine],metabolism of the prodrug,[8],this metabolism does not occur
same,metabolism of the prodrug,"[8]; human, 7 days, 20 μM",metabolized into the toxic drug 5-FU
same,metabolism of the prodrug,[9],this metabolism does not occur
same,metabolism of the prodrug,"[9]; human, 7 days, 20 uM",metabolized into the toxic drug 5-FU
CNC[C@H](O)c1ccc(O)c(O)c1 [epinephrine],increase in BPM after epinephrine,"[10]; Group 2, liver component present, 0.1 μM propranolol then 0.5 μM epinephrine",1.25 fold
same,response relative to control epinephrine-only response,"[10]; Group 2, liver organoids, propranolol then epinephrine",approximately 50%
same,restoration of the epinephrine-induced increase in beat rate,[10]; Group 2 conditions with 2D hepatocyte culture (1-2 million cells) in place of 3D liver organoids,failed to achieve any restoration
same,increase in beating rate,"[10]; epinephrine only, 0.5 μM, liver component present, p<0.05",~30%
same,increase in beating rate,"[11]; epinephrine only, 0.5 μM",~ 40%
same,increase in cardiac BPM after epinephrine,"[11]; experimental controls, no propranolol prior to epinephrine",1.5 fold
same,epinephrine concentration at which beat rate increase reaches a plateau,[3],≥ 5 µM
same,dose dependent increase in beat rate,[3]; increasing epinephrine concentration,1 to 2 fold
O=C(O)CNCP(=O)(O)O [glyphosate],ATP activity,[12],decreases in ATP activity
NCCc1c[nH]cn1 [histamine],fluorescent intensity of outlet aliquots (dye transfer),[13],~200 RFUs
same,resistance across endothelium layers (TEER),[14],approximately 0.4 kΩ
"[Cl][Pb][Cl] [lead, lead chloride]",ATP activity,[12],decreases in ATP activity
CC(C)NCC(O)COc1cccc2ccccc12 (centres unmarked) [propranolol],change in beating rate,"[10]; propranolol only, 0.1 μM, liver construct present",no decrease in beating rate
same,effect of propranolol on response to 0.5 μM epinephrine,"[11]; Group 1, no liver organoids, 0.1 μM propranolol first",successfully blocked the beta-adrenergic effects
same,decrease in beating rate,"[11]; propranolol only, 0.1 μM, p<0.05",~ 10%
same,beating rate after administration of 5 μM epinephrine,[3]; initial incubation with propranolol 0 to 20 μM,dose dependent decrease in beating rate
"O=[N+]([O-])[O-].[Tl+] [thallium, thallium nitrate]",ATP activity,[12],decreases in ATP activity
